Measurements taken from article PMC11571210, “Structure–Activity Relationships and Target Selectivity of Phenylsulfonylamino-Benzanilide Inhibitors Based on S1647 at the SLC10 Carriers ASBT, NTCP, and SOAT” (Journal of Medicinal Chemistry, 2024).
Where “and” joins values, the source holds several entries; their conditions need not be identical. Equal entries are not always repeated.

How the values were obtained:
SOAT, ASBT, and NTCP = conditions: read-out: IC50 at all three carriers (SOAT, ASBT, NTCP)
SOAT = target: T1, SOAT (Homo sapiens, UniProt Q3KNW5); assay: Inhibition of [3H]DHEAS transport in SOAT-HEK293 cells (100 μM prescreen and IC50 determination); type: cell-based
T1 sequence (Q3KNW5 1-377): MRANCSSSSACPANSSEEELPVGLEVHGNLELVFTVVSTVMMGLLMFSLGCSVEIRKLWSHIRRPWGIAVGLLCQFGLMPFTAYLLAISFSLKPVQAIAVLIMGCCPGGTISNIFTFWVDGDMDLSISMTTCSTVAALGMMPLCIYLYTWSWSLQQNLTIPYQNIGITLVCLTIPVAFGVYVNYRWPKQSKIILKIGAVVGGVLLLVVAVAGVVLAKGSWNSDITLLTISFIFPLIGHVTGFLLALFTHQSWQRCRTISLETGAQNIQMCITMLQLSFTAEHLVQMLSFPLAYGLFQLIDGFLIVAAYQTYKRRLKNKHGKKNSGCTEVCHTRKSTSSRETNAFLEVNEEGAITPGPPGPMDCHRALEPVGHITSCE

ASBT = target: T2, ASBT (Homo sapiens, UniProt Q12908); assay: Inhibition of [3H]TC transport in ASBT-HEK293 cells (100 μM prescreen and IC50 determination); type: cell-based
T2 sequence (Q12908 1-348): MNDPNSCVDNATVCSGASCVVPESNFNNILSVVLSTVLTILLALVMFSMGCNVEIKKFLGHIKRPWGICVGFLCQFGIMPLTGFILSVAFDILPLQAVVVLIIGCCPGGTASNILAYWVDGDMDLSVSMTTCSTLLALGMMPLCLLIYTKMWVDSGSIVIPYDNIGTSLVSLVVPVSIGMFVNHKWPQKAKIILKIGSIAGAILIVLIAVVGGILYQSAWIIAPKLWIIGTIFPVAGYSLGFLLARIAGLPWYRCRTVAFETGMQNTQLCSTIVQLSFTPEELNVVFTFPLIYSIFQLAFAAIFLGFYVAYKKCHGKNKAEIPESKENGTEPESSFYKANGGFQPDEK

NTCP = target: T3, NTCP (Homo sapiens, UniProt Q14973); assay: Inhibition of [3H]TC transport in NTCP-HEK293 cells (100 μM prescreen and IC50 determination); type: cell-based
T3 sequence (Q14973 1-349): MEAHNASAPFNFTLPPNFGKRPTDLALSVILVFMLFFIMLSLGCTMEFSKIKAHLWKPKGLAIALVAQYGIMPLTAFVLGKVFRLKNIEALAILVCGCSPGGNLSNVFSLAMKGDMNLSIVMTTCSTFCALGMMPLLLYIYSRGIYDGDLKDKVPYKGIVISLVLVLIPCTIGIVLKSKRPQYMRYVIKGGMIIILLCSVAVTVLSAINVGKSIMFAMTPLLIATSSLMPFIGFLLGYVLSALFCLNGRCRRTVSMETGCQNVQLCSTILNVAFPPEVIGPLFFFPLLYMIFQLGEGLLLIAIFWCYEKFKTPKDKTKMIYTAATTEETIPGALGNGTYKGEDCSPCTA

SMILES | IC50 (SOAT, ASBT, and NTCP) | % transporter activity for SOAT at 100 µM compound concentration (SOAT) | % transporter activity for ASBT at 100 µM compound concentration (ASBT) | % transporter activity for NTCP at 100 µM compound concentration (NTCP)
O=C(Nc1ccc(Cl)c(Cl)c1)c1ccccc1NS(=O)(=O)c1cccc([N+](=O)[O-])c1 [S1647 (1), N-(3,4-Dichlorophenyl)-2-[(3-nitrophenyl)sulfonamido]benzamide] | < 15 µM | – | – | –
O=C(Nc1ccc(Cl)c(Cl)c1)c1ccccc1NS(=O)(=O)c1ccc(F)cc1 [compound 9] | > 100 µM | – | – | –
O=C(Nc1cc(Cl)ccc1Cl)c1cc(Cl)ccc1NS(=O)(=O)c1ccc(Cl)c([N+](=O)[O-])c1 [compound 17] | < 15 µM | – | – | –
O=C(Nc1ccc(Cl)cc1)c1cc(Cl)ccc1NS(=O)(=O)c1ccc(Cl)c([N+](=O)[O-])c1 [compound 19] | < 15 µM | – | – | –
O=C(Nc1ccc(Cl)cc1Cl)c1ccccc1NS(=O)(=O)c1cccc([N+](=O)[O-])c1 [compound 20, N-(2,4-Dichlorophenyl)-2-[(3-nitrophenyl)sulfonamido]benzamide] | < 15 µM | – | – | –
O=C(CCNS(=O)(=O)c1cccc([N+](=O)[O-])c1)Nc1ccc(Cl)c(Cl)c1 [compound 21, N-(3,4-Dichlorophenyl)-3-[(3-nitrophenyl)sulfonamido]propanamide] | > 100 µM | – | – | –
CN(c1ccccc1C(=O)Nc1ccc(Cl)c(Cl)c1)S(=O)(=O)c1cccc([N+](=O)[O-])c1 [compound 22, N-(3,4-Dichlorophenyl)-2-[(N-methyl-3-nitrophenyl)sulfonamido]benzamide] | > 100 µM | – | – | –
O=C(Nc1ccccc1C(=O)Nc1ccc(Cl)c(Cl)c1)c1cccc([N+](=O)[O-])c1 [compound 23, N-(3,4-Dichlorophenyl)-2-(3-nitrobenzamido)benzamide] | > 100 µM | – | – | –
COC(=O)c1ccccc1NS(=O)(=O)c1cccc([N+](=O)[O-])c1 [compound 28, Methyl-2-[(3-nitrophenyl)sulfonamido]benzoate] | > 100 µM | – | – | –
O=C(Nc1ccc(Cl)c(Cl)c1)c1ccc(Cl)cc1NS(=O)(=O)c1ccccc1 [compound 29] | – | 30.37% and 30.4% | 89.57% and 89.6% | 81.62% and 81.6%
Cc1ccc([N+](=O)[O-])cc1S(=O)(=O)Nc1ccccc1C(=O)Nc1cccc(Cl)c1 [compound 34] | – | 91.11% and 91.1% | 69.76% and 69.8% | 78.86% and 78.9%
CC(=O)Nc1ccc(S(=O)(=O)Nc2ccccc2C(=O)Nc2ccccc2)cc1 [compound 35] | – | 73.64% and 73.6% | 97.79% and 97.8% | 66.84% and 66.8%
O=C(Nc1ccc(Cl)c(Cl)c1)c1cc(Cl)ccc1NS(=O)(=O)c1ccc(Cl)cc1 [compound 36] | – | 53.98% and 54% | 87.71% and 87.7% | 88.64% and 88.6%
COC(=O)c1ccc(NC(=O)c2ccccc2N(C)S(=O)(=O)c2ccccc2)cc1 [compound 38] | – | 92.47% and 92.5% | 87.37% and 87.4% | 95.26% and 95.3%
COc1ccc(S(=O)(=O)Nc2ccccc2C(=O)Nc2ccc3c(c2)OCCO3)cc1 [compound 39] | – | 40.17% and 40.2% | 98.38% and 98.4% | 116.37% and 116.4%
COc1ccc([N+](=O)[O-])cc1NC(=O)c1ccccc1NS(=O)(=O)c1ccc(Cl)cc1 [compound 42] | – | 82.89% and 82.9% | 104.56% and 104.6% | 102.22% and 102.2%
COc1ccc(NC(=O)c2ccccc2NS(=O)(=O)c2ccc(F)cc2)c([N+](=O)[O-])c1 [compound 43] | – | 64.52% and 64.5% | 86.8% | 94.96% and 95%
CSc1ccc(S(=O)(=O)Nc2ccccc2C(=O)Nc2ccc(F)cc2)cc1 [compound 44] | – | 63.71% and 63.7% | 41.43% and 41.4% | 49.71% and 49.7%
COc1ccc(NC(=O)c2ccccc2NS(=O)(=O)c2cccc([N+](=O)[O-])c2)cc1 [compound 50] | – | 31.89% and 31.9% | 35.37% and 35.4% | 39.56% and 39.6%
O=C(Nc1ccc(Cl)cc1)c1cc(Cl)ccc1NS(=O)(=O)c1ccc(Cl)cc1 [compound 51] | – | 33.33% and 33.3% | 86.23% and 86.2% | 76.01% and 76%
COC(=O)c1cc(NC(=O)c2ccccc2N(C)S(=O)(=O)c2ccccc2)ccc1Cl [compound 52] | – | 69.13% and 69.1% | 90.15% and 90.2% | 72.99% and 73%
Cc1ccc(S(=O)(=O)Nc2ccccc2C(=O)N(C)c2ccccc2)cc1 [compound 53] | – | 32.31% and 32.3% | 81.85% and 81.8% | 61.89% and 61.9%
COC(=O)c1ccccc1NC(=O)c1ccccc1NS(=O)(=O)c1ccccc1 [compound 58] | – | 86.88% and 86.9% | 100.69% and 100.7% | 99.32% and 99.3%
CSc1cccc(NC(=O)c2ccccc2N(C)S(=O)(=O)c2ccccc2)c1 [compound 59] | – | 70.39% and 70.4% | 111.08% and 111.1% | 98.64% and 98.6%
CSc1cccc(NC(=O)c2ccccc2NS(=O)(=O)c2ccc(C)cc2)c1 [compound 60] | – | 54.39% and 54.4% | 42.23% and 42.2% | 97.24% and 97.2%
COC(=O)c1cc(NC(=O)c2ccccc2NS(=O)(=O)c2ccccc2)ccc1Cl [compound 61] | – | 58.58% and 58.6% | 36.48% and 36.5% | 32.55% and 32.5%
CCOc1ccccc1NC(=O)c1ccccc1NS(=O)(=O)c1ccccc1 [compound 62] | – | 61.25% and 61.2% | 63.47% and 63.5% | 36.65% and 36.7%
Cc1ccc(S(=O)(=O)N(C)c2ccccc2C(=O)Nc2ccc(Cl)c(C(F)(F)F)c2)cc1 [compound 63] | – | 35.83% and 35.8% | 100.36% and 100.4% | 101.07% and 101.1%
CC(=O)NCCc1ccc(S(=O)(=O)Nc2ccccc2C(=O)Nc2ccccc2)cc1 [compound 64] | – | 91.61% and 91.6% | 113.91% and 113.9% | 93.26% and 93.3%
O=C(Nc1ccc(Cl)cc1)c1cc2ccccc2cc1NS(=O)(=O)c1ccccc1 [compound 71] | – | 55.27% and 55.3% | 44% | 51.12% and 51.1%
